Experimental data from PMC2990587, “Central nervous system penetration and enhancement of temozolomide activity in childhood medulloblastoma models by poly(ADP-ribose) polymerase inhibitor AG-014699” (British Journal of Cancer, 2010).
Entries after “also recorded” stand apart in the source; their conditions may differ.

What was measured:
[1] = tested on: D384Med xenografts; assay: Tumour growth inhibition in vivo, D384Med xenografts; design: species or system mouse
From the text: All of the in vivo experiments were reviewed and approved by the relevant institutional animal welfare committees, and performed according to national law. Female athymic nude mice (CD1 nu/nu; Charles River, Margate, UK) used for anti-tumour studies were maintained and handled in isolators under specific pathogen-free conditions. […], […] and […] (1 × 10^7 exponentially growing cells per mouse, harvested and implanted in growth media) xenografts were established by sub-cutaneous implantation into CD-1 nude mice. […] Treatment was initiated when sufficient number of mice had established tumours to allow randomisation into treatment groups: day 17 for […], day 26 for […] and day 32 for […]. […] For drug combinations, AG-014699 was administered immediately after administering temozolomide. […] Tumour growth delay (TGD) is defined as the time to RTV4 in drug-treated mice compared with the time to RTV4 in control (vehicle alone) mice. Median tumour volume is shown, rather than the mean, as this is generally accepted as the most statistically reliable representation of the average growth rate of tumours in a small group of mice, if a normal distribution of tumour volumes cannot be assumed. Tumour growth delay was calculated as: median time to RTV4 in treated group-median time to RTV4 in control group.

[2] = molecular target: T1, PARP-1 (Mus musculus, UniProt P11103); assay: PARP activity in brain homogenates after AG-014699 dosing; type: in vivo
T1 construct: from tissue; host or cells: brain of CD-1 nude mice
Method: One or four daily doses of PARP inhibitor AG-014699 (1 mg kg^−1 intraperitoneally (i.p.)) were given to CD-1 nude mice bearing established D283Med xenografts. At 0.5, 2, 6 and 24 h after the initial or fourth daily dose of AG-014699, three animals per time point were bled by cardiac puncture under general anaesthesia, and then killed. Plasma was separated from the blood samples using standard methods and stored at −80°C. The brains and tumours were removed, snap frozen in liquid nitrogen and stored at −80°C before analysis. Blood, tumour and brain tissue were removed from three untreated control animals and processed in the same way.
PARP activity was determined in homogenates of subcutaneous D283Med xenografts and brain tissue (see above). Maximally stimulated PARP activity was measured in replicate samples (n⩾3) of a 1 : 1000 dilution of the homogenate as described for permeabilised D283Med cells (see above). Data were calculated as pmol PAR per mg protein by reference to the PAR standard curve and protein content of the sample and expressed as a percentage of the corresponding tissue from the saline-treated control animals. The mean PARP activity in xenograft and brain samples taken at each time point was expressed as a percentage of the mean PARP activity of control xenografts from untreated mice (n=3).

[3] = molecular target: PARP-1 (Homo sapiens, UniProt P09874); assay: PARP activity in permeabilised D283Med cells (10H anti-PAR immunoassay); type: cell-based
Method: Inhibition of PARP activity in 5000 exponentially growing D283Med cells was measured following treatment with a range of AG-014699 concentrations (0–1 μM), in comparison with DMSO-only controls. Maximally stimulated PARP activity was measured in replicate samples (n⩾3) of permeabilised cells by immunological detection of the amount of poly(ADP-ribose) (PAR) formed, using 10H anti-PAR antibody, during a 6-min incubation with NAD^+ and oligonucleotide (substrate and activator) by reference to a PAR (Biomol Research Labs, Plymouth, PA, USA) standard curve using a GCLP-validated assay described previously ([Plummer et al, 2005]).

[4] = Toxicity (body weight loss) in tumour-bearing mice; type: in vivo, mouse
Method: CD-1 nude mice bearing palpable, established subcutaneous D425Med, D283Med and D384Med xenografts were treated with normal saline (control animals), temozolomide (68 mg kg^−1 per os (p.o.)) or AG-014699 (1 mg kg^−1 i.p.) alone or in combination, daily for 5 days (five mice per group). For drug combinations, AG-014699 was administered immediately after administering temozolomide. Tumour volumes, determined from two-dimensional calliper measurements and the equation a^2 × b/2 (where a is the […] of the tumour), were monitored for the experimental period (up to 100 days), and are presented for each group of mice as median relative tumour volume (RTV) values. Relative tumour volume 1 is the tumour volume on the initial day of treatment (day 0), and RTV4 is the tumour volume four times that on the initial day of treatment. Tumour growth delay (TGD) is defined as the time to RTV4 in drug-treated mice compared with the time to RTV4 in control (vehicle alone) mice. Median tumour volume is shown, rather than the mean, as this is generally accepted as the most statistically reliable representation of the average growth rate of tumours in a small group of mice, if a normal distribution of tumour volumes cannot be assumed. Tumour growth delay was calculated as: median time to RTV4 in treated group−median time to RTV4 in control group. Percentage enhancement was calculated as 100 × (TGD TMZ+AG-014699/TGD TMZ alone)−100 ([Calabrese et al, 2004]).

Chain of PARP-1 (Homo sapiens, UniProt P09874) (P09874 whole entry): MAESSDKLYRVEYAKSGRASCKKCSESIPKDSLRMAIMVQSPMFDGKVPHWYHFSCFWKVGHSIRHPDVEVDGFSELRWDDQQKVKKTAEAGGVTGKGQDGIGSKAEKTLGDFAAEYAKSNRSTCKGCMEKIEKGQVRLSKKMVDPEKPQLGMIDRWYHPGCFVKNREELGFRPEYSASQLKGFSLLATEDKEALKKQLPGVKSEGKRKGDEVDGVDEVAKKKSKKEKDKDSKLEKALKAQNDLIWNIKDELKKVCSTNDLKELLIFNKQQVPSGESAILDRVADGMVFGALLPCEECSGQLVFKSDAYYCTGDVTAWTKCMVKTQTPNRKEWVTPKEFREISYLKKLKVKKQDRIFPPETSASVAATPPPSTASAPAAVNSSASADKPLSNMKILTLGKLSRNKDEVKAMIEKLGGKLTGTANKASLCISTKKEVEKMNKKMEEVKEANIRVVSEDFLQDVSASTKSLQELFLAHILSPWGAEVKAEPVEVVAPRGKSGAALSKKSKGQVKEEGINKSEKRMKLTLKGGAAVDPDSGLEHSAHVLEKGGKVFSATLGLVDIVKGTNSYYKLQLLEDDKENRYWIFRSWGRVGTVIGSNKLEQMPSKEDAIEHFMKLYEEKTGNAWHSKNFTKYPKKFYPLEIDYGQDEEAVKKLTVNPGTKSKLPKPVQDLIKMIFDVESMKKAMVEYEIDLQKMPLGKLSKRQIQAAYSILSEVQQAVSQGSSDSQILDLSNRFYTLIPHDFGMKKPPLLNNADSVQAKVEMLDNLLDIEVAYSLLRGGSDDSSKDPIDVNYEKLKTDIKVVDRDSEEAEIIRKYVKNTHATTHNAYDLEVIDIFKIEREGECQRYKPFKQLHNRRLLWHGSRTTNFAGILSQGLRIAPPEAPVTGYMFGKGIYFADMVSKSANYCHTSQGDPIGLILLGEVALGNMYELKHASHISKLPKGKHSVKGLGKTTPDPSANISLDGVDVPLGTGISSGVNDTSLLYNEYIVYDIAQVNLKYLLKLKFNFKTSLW
T1 sequence (P11103 whole entry): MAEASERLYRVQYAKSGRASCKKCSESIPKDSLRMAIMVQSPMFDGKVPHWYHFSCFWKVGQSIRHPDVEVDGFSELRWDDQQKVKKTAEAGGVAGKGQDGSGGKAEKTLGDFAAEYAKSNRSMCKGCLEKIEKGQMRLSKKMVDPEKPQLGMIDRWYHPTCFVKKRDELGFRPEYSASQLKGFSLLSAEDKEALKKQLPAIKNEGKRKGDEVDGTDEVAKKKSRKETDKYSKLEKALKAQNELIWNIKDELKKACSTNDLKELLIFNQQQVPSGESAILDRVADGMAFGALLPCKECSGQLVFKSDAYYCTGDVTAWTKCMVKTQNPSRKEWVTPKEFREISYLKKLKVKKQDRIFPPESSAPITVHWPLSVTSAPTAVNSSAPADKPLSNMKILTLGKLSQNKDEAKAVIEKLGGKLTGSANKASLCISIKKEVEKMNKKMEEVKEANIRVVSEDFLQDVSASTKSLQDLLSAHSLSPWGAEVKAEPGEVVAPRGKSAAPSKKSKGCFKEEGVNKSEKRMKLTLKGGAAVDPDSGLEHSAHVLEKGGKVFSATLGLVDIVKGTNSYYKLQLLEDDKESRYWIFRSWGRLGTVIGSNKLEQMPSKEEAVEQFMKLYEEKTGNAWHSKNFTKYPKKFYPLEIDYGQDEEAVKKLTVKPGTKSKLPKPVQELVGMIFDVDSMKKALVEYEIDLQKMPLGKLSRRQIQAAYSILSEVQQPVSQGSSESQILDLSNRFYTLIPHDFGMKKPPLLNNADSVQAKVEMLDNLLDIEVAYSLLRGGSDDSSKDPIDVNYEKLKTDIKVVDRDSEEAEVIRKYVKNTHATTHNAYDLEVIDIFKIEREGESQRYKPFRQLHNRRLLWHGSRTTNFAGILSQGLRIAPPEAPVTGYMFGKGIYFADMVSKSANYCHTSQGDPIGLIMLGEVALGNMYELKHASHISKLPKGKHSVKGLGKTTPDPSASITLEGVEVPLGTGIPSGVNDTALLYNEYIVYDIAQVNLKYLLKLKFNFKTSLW

CNCc1ccc(-c2[nH]c3cc(F)cc4c3c2CCNC4=O)cc1 [AG-014699]
Median nadir body weight (% starting weight) ([1]; D384Med-bearing mice, daily x5, TMZ 68 mg kg−1 p.o., AG-014699 1 mg kg−1 i.p.): 96 % starting weight
Median time to RTV4 ([1]; D384Med, daily x5, TMZ 68 mg kg−1 p.o., AG-014699 1 mg kg−1 i.p.): 20 days
Complete regressions ([1]; D384Med, mice with regression/group, transient): 0/5
Tumour growth delay ([1]; D384Med, versus control time to RTV4): 4 days
PARP activity in brain ([2]; 24 h after fourth daily dose 1 mg kg−1 i.p.): near-normal activity
Reduction of PARP activity in brain ([2]; 24 h after single dose 1 mg kg−1 i.p.): approximately 40%
Reduction of PARP activity in brain tissue ([2]; abstract, time not stated): ≥ 75%
Reduction of PARP activity in brain ([2]; first 2 h after single dose 1 mg kg−1 i.p.): around 75%
Inhibition of PARP-1 activity ([3]; 0.1 μM AG-014699): 80%
Inhibition of PARP-1 activity ([3]; 0.4 μM AG-014699): > 95%
inhibition at 0.1 µM ([3]; D283 Med, 0.1 μM AG-014699): 81.1%
inhibition at 0.4 µM ([3]; D283 Med, 0.4 μM AG-014699): 96.8%
inhibition at 1 µM ([3]; D283 Med, 1 μM AG-014699): 97.1%
Toxicity of AG-014699 alone ([4]; 1 mg kg−1 i.p. daily five times): not toxic; also recorded: did not cause any marked toxicity
Body weight loss ([4]; daily x5, TMZ 68 mg kg−1 p.o., AG-014699 1 mg kg−1 i.p.): 1±1%
